# Measured values taken from patent US11987568B2, “Allosteric inhibitor of WEE1 kinase” (H. LEE MOFFITT CANCER CENTER AND RESEARCH INSTITUTE, INC., priority 2018, dated 2024).
# “And” between values parts separate entries of the source, which are not always exact repeats. Identical values can stand only once. Like-named read-outs stand apart in the source and are kept apart here.
# Legend:
# [1] = test system: histone H2B Tyr37-phopshorylation (pY37-H2B); test: WEE1 epigenetic activity in cells: pY37-H2B immunoprecipitation/immunoblot; type: cell-based, human; settings: LNCaP cells
# Description: FIGS. 2A-2B show identification of 3 distinct types of inhibitors. […] In addition, the lysates were also subjected to by immunoblotting with pY15-Cdc2 or actin antibodies (middle and bottom panels). […] The number vehicle treated cells were used as control and percent of surviving cells were plotted.
# (§1) FIGS. 4A-4B show structures of ‘hits’ identified in WEE1 epigenetic inhibitor screen. […] The reaction mix was then subjected to immunoprecipitated with WEE1 antibodies, followed by immunoblotting with pTyr antibodies. […] In addition, the lysates were also subjected to immunoblotting with actin antibodies (bottom panel).
# FIGS. 7A-7C show identification of WEIN-159 as a potent WEE1 epigenetic inhibitor. […] In addition, lysates were immunoprecipitated with pY37-H2B antibodies, followed by immunoblotting with H2B antibodies (middle panel). […] The lysates were also subjected to immunoblotting with pY15-Cdc2 antibodies and were immunoprecipitated with pY37-H2B antibodies, followed by immunoblotting with H2B antibodies (middle panels). In addition, the lysates were also subjected to immunoblotting with H2B antibodies (bottom panel). […] The lysates were also subjected to immunoblotting with pY15-Cdc2 antibodies and were immunoprecipitated with pY37-H2B antibodies, followed by immunoblotting with H2B antibodies (middle panels). In addition, the lysates were also subjected to immunoblotting with actin antibodies (bottom panel).
# Identification of compounds with WEE1 epigenetic inhibitory role: 14 ‘hits’ that were identified in the screen are shown in FIG. 1. These compounds were further tested for their ability to inhibit WEE1 epigenetic activity. Prostate cancer derived LNCaP cells were treated with 3 uM of compounds for 48 hours. Cells were harvested, lysates were prepared, and WEE1 epigenetic activity was detected by determining histone H2B Tyr37-phopshorylation (pY37-H2B). Lysates were also assessed for WEE1 cell cycle inhibitory activity by determining Cdc2 Tyr15-phosphorylation (pY15-Cdc2). […] These are named as ‘Cell Cycle’ inhibitors. […] These compounds are the ‘Epigenetic’ inhibitors.
# 5hmC levels = test: 5-hmC slot blot of genomic DNA; type: cell-based; settings: 10 uM, 16 hr
# Procedure: WM66 cells (FIG. 5A) or primary melanocytes (FIG. 5B) were treated with vehicle or compounds (10 uM) for 16 hr. Total RNA was isolated followed by qRT-PCR with IDH2 and actin primers. FIG. 5C indicated cells were treated with vehicle or compounds (10 uM) for 16 hr. Total genomic DNA was isolated, slot-blotted onto a nitrocellulose membrane, followed by blotting with 5-hmC antibodies (top panels). Blots were also stained with methylene blue, to determine equal loading of DNA (bottom panel).
# Identification of 55152 (18-B3) scaffold as a WEE1 epigenetic inhibitor: Two major hits, 367416 (16-G9) and 55152 (18-B3) were taken up for further characterization. […] Accordingly, melanoma cell line WM66 and primary melanocytes were treated with inhibitors and IDH2 mRNA levels were measure by real time PCR.
# LogD = type: physicochemical; settings: pH 7.4
# Procedure: (§2) ADME studies with 55152 (18-B3) and 367416 (16-G9): The solubility, microsome stability and plasma stability of these two compounds were also determined (Table 2).
# Solubility = type: physicochemical
# Procedure: as §2
# [2] = biological target: T1, full length human WEE1 kinase (Homo sapiens, UniProt P30291); test: In vitro kinase assay, purified full length WEE1, pTyr immunoblot; type: biochemical; parameters: a full length WEE1 kinase protein was incubated with the compounds; settings: purified full length WEE1, 100 nM (FIG. 3A, 4A)
# T1 sequence (P30291 whole entry): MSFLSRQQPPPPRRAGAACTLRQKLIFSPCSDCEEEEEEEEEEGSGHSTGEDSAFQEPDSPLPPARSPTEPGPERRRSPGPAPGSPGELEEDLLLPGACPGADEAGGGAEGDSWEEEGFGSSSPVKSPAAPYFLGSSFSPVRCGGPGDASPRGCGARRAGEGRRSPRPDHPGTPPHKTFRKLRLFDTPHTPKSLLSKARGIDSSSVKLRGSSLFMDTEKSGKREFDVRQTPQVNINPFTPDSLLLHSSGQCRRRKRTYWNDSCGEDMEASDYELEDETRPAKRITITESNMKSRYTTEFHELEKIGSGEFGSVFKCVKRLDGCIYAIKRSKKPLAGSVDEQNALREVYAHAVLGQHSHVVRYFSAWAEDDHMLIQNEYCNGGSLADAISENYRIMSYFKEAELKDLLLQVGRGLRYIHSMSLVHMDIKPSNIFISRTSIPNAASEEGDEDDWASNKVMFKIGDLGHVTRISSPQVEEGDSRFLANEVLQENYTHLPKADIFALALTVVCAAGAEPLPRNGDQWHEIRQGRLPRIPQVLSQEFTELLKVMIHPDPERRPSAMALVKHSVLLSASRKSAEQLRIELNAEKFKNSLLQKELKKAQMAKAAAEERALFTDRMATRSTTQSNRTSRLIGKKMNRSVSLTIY
# Procedure: The reaction mix was then subjected to immunoprecipitated with WEE1 antibodies, followed by immunoblotting with pTyr antibodies (top panel). As a control, purified ACK1 protein was incubated in the reaction buffer containing ATP, in presence of 100 nM epigenetic inhibitors. The reaction mix was then subjected to immunoprecipitated with ACK1 antibodies, followed by immunoblotting with pTyr antibodies (bottom panel). […] In addition, the lysates were also subjected to immunoblotting with actin antibodies (bottom panel). […] In addition, the lysates were also subjected to immunoblotting with actin antibodies (bottom panel).
# as §1
# To determine direct binding of these compounds causing WEE1 inhibition, a full length WEE1 kinase protein was incubated with the compounds. […] As a control, purified ACK1 kinase was also incubated with these compounds, none of these compounds were able to inhibit ACK1 kinase activity. These inhibitors were further validated by assessing their ability to suppress endogenous WEEE activity; LNCaP cells were treated with 10 μM of these compounds overnight.
# [3] = biological target: T1, full length human WEE1 kinase; test: ELISA based assay: WEE1 phosphorylation of biotinylated H2B peptide spanning Tyr37; type: biochemical; parameters: A full length human WEE1 kinase that was enzymatically active was purified from insect cell; settings: Table 1; several values in a cell are repeat determinations
# Description: Designing of a Novel inhibitor Screening Platform: […] A full length human WEE1 kinase that was enzymatically active was purified from insect cell. […] NCI diversity set compound library ( 1600 compounds) was used for the screening.
smiles,measurement,setting,value
"Nc1ccc(NC(=O)c2ccc(C(=O)Nc3ccc(N)cc3)cc2)cc1 [SG5-061, N^1,N^4-bis(4-aminophenyl)terephthalamide]",H2B Tyr37-phosphorylation (pY37-H2B),"[1]; 3 uM, 48 hours (FIG. 2A)",specifically suppressed H2B Tyr37-phosphotylation
same,H2B Tyr37-phosphorylation,"[1]; 10 μM, 12 hours (FIG. 4B)",complete loss of H2B Tyr37-phosphorylation
same,5hmC levels,5hmC levels,Corresponding increase in 5hmC levels
same,logD,LogD,0.98
same,solubility,"Solubility; aqueous buffer, pH 5.0, read-out: Solubility (ug/mL) pH 5.0",0.13 µg/mL
same,solubility,"Solubility; pH 6.2, aqueous buffer, read-out: Solubility (ug/mL) pH 6.2",0.22 µg/mL
same,solubility,"Solubility; pH 7.4, aqueous buffer, read-out: Solubility (ug/mL) pH 7.4",0.15 µg/mL
same,WEE1 kinase activity (pTyr immunoblot),[2]; listed as 18-B3,suppresses kinase activation better than 16-G9
same,WEE1 kinase activity (pTyr immunoblot),[2]; listed as 55152 (18-B3),significant loss of WEE1 kinase activity
same,ELISA Inhibition (%),[3],112% and 81% and 82% and 87% and 83% and 100% and 106%
